Assays:
[1] = target: T1, Serine/threonine-protein kinase Nek1 (Homo sapiens) (UniProt Q96PY6); assay: Inhibition of NEK1 (unknown origin) at 10 uM relative to control
T1 sequence (whole entry): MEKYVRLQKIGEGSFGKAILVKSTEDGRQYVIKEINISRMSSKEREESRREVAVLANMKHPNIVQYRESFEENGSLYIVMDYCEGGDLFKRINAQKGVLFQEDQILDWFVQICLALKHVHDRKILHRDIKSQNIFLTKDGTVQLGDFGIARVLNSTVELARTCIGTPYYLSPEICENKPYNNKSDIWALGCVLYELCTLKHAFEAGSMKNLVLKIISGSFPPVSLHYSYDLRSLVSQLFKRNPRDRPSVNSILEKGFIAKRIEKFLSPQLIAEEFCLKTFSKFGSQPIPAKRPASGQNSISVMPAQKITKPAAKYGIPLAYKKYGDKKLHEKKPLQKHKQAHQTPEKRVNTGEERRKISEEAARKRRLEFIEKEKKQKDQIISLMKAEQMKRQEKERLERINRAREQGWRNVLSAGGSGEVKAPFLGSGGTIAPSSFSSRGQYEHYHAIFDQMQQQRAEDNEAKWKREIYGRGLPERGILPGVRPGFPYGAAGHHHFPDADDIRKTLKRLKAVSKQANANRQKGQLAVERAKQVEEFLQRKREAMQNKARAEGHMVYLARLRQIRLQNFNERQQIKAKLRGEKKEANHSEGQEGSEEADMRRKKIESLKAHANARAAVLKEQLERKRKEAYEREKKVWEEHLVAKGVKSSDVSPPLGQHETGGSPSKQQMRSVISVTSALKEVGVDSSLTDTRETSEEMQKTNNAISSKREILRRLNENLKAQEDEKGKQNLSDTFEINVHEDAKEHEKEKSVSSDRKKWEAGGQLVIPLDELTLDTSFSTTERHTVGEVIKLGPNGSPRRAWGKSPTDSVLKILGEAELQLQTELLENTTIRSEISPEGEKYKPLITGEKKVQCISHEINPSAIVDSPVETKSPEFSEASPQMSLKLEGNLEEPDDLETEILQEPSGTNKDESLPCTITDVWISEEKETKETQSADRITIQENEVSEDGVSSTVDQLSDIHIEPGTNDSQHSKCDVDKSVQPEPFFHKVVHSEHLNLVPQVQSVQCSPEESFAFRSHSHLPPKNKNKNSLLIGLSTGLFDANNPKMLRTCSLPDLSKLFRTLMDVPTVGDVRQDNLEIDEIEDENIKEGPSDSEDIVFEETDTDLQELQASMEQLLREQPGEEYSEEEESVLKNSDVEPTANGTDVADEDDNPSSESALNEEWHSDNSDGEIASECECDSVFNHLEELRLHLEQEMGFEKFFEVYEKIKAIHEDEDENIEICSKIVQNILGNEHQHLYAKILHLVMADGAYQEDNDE

[2] = target: Serine/threonine-protein kinase Nek4 (Homo sapiens) (UniProt P51957); assay: Inhibition of NEK4 (unknown origin) at 10 uM relative to control
[3] = target: Serine/threonine-protein kinase Nek6 (Homo sapiens) (UniProt Q9HC98); assay: Inhibition of NEK6 (unknown origin) at 10 uM relative to control
[4] = target: Serine/threonine-protein kinase Nek7 (Homo sapiens) (UniProt Q8TDX7); assay: Inhibition of NEK7 (unknown origin) at 10 uM relative to control
[5] = target: T2, Serine/threonine-protein kinase Nek9 (Homo sapiens) (UniProt Q8TD19); assay: Inhibition of NEK9 (unknown origin) at 10 uM relative to control
T2 sequence (whole entry): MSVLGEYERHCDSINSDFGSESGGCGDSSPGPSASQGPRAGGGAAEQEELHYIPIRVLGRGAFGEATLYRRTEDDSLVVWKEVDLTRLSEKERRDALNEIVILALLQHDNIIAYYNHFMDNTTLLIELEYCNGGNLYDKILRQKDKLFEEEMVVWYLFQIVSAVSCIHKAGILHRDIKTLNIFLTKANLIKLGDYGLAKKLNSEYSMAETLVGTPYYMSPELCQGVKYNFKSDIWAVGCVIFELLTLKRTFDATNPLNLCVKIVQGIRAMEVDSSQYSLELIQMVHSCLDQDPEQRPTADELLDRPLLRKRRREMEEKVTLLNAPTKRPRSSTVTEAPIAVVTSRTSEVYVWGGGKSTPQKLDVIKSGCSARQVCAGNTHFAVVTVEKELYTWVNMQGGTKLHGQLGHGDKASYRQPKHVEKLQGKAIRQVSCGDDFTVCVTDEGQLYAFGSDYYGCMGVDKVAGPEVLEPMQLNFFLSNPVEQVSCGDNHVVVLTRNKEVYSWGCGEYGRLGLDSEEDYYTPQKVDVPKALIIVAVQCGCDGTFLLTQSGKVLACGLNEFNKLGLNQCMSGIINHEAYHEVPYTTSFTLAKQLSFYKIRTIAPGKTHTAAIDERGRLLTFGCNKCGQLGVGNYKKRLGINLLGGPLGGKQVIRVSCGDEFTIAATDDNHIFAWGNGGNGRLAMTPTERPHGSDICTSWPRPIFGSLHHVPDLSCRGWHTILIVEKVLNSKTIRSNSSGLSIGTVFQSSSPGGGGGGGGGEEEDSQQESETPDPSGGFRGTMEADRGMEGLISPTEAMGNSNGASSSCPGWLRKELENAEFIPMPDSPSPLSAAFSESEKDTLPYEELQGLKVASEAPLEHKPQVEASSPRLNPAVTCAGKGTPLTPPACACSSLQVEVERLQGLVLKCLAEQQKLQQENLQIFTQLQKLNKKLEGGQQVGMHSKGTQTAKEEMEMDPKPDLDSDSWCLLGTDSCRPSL

Sequence of Serine/threonine-protein kinase Nek7 (Homo sapiens) (Q8TDX7 whole entry, looked up): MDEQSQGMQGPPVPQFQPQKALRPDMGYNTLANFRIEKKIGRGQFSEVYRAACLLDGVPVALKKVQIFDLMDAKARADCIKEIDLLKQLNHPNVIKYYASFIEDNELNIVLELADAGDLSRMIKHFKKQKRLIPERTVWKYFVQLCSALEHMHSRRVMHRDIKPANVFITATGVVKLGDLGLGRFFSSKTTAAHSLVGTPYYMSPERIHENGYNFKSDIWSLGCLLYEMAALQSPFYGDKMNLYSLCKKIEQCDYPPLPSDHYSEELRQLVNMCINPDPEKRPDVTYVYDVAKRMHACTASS
Sequence of Serine/threonine-protein kinase Nek4 (Homo sapiens) (P51957 whole entry, looked up): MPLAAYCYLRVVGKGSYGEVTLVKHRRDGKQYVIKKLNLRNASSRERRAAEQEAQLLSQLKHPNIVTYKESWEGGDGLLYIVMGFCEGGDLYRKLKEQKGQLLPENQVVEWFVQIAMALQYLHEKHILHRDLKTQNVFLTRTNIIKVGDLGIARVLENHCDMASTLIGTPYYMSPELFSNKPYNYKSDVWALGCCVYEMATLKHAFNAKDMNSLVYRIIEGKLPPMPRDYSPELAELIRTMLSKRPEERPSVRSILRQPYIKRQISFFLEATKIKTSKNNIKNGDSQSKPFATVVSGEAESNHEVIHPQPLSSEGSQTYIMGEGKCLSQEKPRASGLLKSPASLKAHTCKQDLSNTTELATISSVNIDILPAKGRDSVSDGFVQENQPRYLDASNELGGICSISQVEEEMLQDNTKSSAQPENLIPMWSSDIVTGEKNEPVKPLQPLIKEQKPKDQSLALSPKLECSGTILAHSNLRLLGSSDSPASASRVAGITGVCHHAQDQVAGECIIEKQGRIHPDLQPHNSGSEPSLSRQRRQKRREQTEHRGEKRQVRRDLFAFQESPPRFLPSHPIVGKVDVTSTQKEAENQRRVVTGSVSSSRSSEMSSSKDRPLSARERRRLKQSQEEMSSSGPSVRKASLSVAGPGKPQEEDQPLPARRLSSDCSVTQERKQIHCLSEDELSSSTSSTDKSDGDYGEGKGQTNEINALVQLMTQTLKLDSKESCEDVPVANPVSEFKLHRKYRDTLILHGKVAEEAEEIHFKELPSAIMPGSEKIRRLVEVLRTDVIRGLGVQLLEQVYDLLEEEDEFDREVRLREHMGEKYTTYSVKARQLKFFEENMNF
Sequence of Serine/threonine-protein kinase Nek6 (Homo sapiens) (Q9HC98 whole entry): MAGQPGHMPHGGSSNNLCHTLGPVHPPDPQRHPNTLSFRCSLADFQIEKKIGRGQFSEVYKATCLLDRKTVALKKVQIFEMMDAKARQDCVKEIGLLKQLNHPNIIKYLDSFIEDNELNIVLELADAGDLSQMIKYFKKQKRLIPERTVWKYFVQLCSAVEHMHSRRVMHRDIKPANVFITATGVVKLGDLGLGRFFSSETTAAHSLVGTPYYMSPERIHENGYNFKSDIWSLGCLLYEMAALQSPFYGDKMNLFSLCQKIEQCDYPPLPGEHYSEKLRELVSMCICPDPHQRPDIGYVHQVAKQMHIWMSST

SMILES	% control [1]	% control [2]	% control [3]	% control [4]	% control [5]
Fc1cc(-c2cc[nH]/c(=N/c3ccc(-n4cnc(N5CCOCC5)n4)cc3)n2)cc(N2CCOCC2)c1	57%	100%	76%	45%	63%
CN(C)C/C=C/C(=O)Nc1ccc(C(=O)Nc2cccc(Nc3nccc(-c4cccnc4)n3)c2)cc1	63%	100%	2.8%	9.8%	22%
CN(C)C/C=C/C(=O)Nc1cccc(C(=O)Nc2ccc(Nc3nccc(-c4c(-c5ccccc5)nn5ccccc45)n3)cc2)c1	100%	100%	100%	100%	100%
CN(C)C/C=C/C(=O)Nc1cccc(C(=O)Nc2ccc(Nc3nccc(-c4cccnc4)n3)cc2)c1	77%	83%	17%	7%	48%
O=C1NC(=O)/C(=C/c2ccc3nccc(-c4ccncc4)c3c2)S1	47%	96%	81%	88%	95%
CN(C)C/C=C/C(=O)Nc1cccc(C(=O)Nc2ccc(Nc3nccc(/C(C#N)=C4\Nc5ccccc5S4)n3)cc2)c1	100%	100%	100%	100%	63%
Cc1cc(NC(=O)c2cccc(NC(=O)/C=C/CN(C)C)c2)ccc1Nc1nccc(-c2cccnc2)n1	81%	79%	100%	100%	100%
Cc1ccc(NC(=O)c2ccc(NC(=O)/C=C/CN(C)C)cc2)cc1Nc1nccc(-c2cccnc2)n1	100%	100%	44%	20%	100%
